Test results from patent publication US7737136B2 (N.V. Organon, priority 2002, dated 2010).

The compounds below were run against T1, human progesterone receptor-B (Homo sapiens, UniProt P06401) (assay: Progesterone receptor-B transactivation assay, progestagenic (agonist) activity, CHO-PRB-pMMTV-LUC 1E2-A2 cells). Settings: CHO cells stably transfected with human progesterone receptor-B and MMTV-luciferase reporter; read-out: Progestagenic activity EC50.
T1 construct: expressed in transfected cells; host or cells: Chinese hamster ovary (CHO) cells, line CHO-PRB-pMMTV-LUC 1E2-A2
T1 sequence (P06401 1-933): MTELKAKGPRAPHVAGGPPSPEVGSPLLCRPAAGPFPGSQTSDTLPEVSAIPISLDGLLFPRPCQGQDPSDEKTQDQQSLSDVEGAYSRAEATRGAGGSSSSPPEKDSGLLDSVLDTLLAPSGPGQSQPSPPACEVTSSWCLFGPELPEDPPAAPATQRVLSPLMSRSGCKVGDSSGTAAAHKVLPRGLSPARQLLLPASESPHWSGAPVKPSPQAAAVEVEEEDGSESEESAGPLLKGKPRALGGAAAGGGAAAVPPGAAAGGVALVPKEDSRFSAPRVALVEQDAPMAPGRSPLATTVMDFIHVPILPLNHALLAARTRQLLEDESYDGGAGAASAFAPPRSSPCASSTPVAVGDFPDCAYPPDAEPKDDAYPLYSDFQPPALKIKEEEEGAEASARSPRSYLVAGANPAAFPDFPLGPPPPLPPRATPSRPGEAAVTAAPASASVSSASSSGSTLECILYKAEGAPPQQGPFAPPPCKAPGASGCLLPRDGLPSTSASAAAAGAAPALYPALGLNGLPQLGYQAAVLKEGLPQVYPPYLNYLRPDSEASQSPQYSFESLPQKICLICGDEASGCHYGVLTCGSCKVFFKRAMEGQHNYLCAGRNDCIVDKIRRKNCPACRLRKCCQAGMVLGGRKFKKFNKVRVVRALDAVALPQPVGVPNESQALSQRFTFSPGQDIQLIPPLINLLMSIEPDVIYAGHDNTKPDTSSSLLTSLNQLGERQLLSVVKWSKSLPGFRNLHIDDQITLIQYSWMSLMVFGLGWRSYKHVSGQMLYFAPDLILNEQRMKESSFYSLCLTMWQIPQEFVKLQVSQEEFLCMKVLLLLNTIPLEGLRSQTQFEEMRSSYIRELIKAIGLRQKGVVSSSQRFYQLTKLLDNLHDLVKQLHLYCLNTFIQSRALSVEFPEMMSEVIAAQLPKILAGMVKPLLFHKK
Format: cell-based
Procedure: The (anti-)progestagenic activity of a compound of the invention (EC 50 and intrinsic activity) was determined in an in vitro bioassay of Chinese hamster ovary (CHO) cells stably transfected with the human progesterone receptor-B expression plasmid and with a reporter plasmid in which the MMTV-promoter is linked to the luciferase reporter gene. […] The cells were cultured with charcoal-treated supplemented defined bovine calf serum from Hyclone (Utah, USA) in Dulbecco's Modified Eagles Medium/Nutrient Mixture F-12 (DMEM/HAM F12 in ratio 1:1) from Gibco (Paisley, UK).

EC50, 100 to 10000 nM:
O=C(N[C@H]1CCCN2c3c(Cl)cccc3Oc3ccccc3[C@H]12)C(F)(F)F (relative stereo) [Example 42B]
CCC(=O)Nc1ccc2c(c1)N1CCC[C@H](NC(=O)C(F)(F)F)[C@H]1c1ccccc1O2 (relative stereo) [Example 67, trans-N-[2,3,4,14b-Tetrahydro-7-[(1-oxopropyl)amino]-1H-dibenzo[b,f]pyrido[1,2-d][1,4]oxazepin-1-yl]-2,2,2-trifluoroacetamide]
CS(=O)(=O)N(c1cc2c(cc1Cl)N1CCC[C@H](NC(=O)C(F)(F)F)[C@H]1c1ccccc1O2)S(C)(=O)=O (relative stereo) [Example 44, trans-N-(7-Chloro-2,3,4,14b-tetrahydro-8-[bis(methylsulfonyl)amino]-1H-dibenzo[b,f]pyrido[1,2-d][1,4]oxazepin-1-yl)-2,2,2-trifluoroacetamide]
NCC(=O)N[C@H]1CCCN2c3cc(Cl)ccc3Oc3ccccc3[C@H]12 (relative stereo) [Example 16, trans-2-Amino-N-(7-chloro-2,3,4,14b-tetrahydro-1H-dibenzo[b,f]pyrido[1,2-d][1,4]oxazepin-1-yl)acetamide]
CN(C(=O)C(F)(F)F)[C@H]1CCCN2c3cc(Cl)ccc3Oc3ccccc3[C@H]12 (relative stereo) [Example 28, trans-N-(7-Chloro-2,3,4,14b-tetrahydro-1H-dibenzo[b,f]pyrido[1,2-d][1,4]oxazepin-1-yl)-2,2,2-trifluoro-N-methylacetamide]
O=C(N[C@H]1CCCN2c3c(Br)cc(F)cc3Oc3ccccc3[C@H]12)C(F)(F)F (relative stereo) [Example 56, trans-N-(6-Bromo-8-fluoro-2,3,4,14b-tetrahydro-1H-dibenzo[b,f]pyrido[1,2-d][1,4]oxazepin-1-yl)-2,2,2-trifluoroacetamide]
O=C(N[C@H]1CCCN2c3cc(Cl)ccc3Oc3ccccc3[C@H]12)OCCl (relative stereo) [Example 30, Trans-(7-Chloro-2,3,4,14b-tetrahydro-1H-dibenzo[b,f]pyrido[1,2-d][1,4]oxazepin-1-yl)carbamic Acid Chloromethyl Ester]
CC(C)CN[C@H]1CCCN2c3cc(Cl)ccc3Oc3ccccc3[C@H]12 (relative stereo) [Example 36, trans-N-(2-Methylpropyl)-7-chloro-2,3,4,14b-tetrahydro-1H-dibenzo[b,f]pyrido[1,2-d][1,4]oxazepine-1-amine]

EC50, 10 to 100 nM:
N#Cc1ccc2c(c1)Oc1ccc(Cl)cc1N1CCC[C@H](NC(=O)C(F)(F)F)[C@@H]21 (relative stereo) [Example 69, trans-7-Chloro-2,3,4,14b-tetrahydro-1-[(trifluoroacetyl)amino]-1H-dibenzo[b,f]pyrido[1,2-d][1,4]oxazepine-12-carbonitrile]
O=C(N[C@H]1CCCN2c3cc(Cl)c(NS(=O)(=O)c4ccccc4)cc3Oc3ccccc3[C@H]12)C(F)(F)F (relative stereo) [Example 45, trans-N-(7-Chloro-2,3,4,14b-tetrahydro-8-[(phenylsulfonyl)amino]-1H-dibenzo[b,f]pyrido[1,2-d][1,4]oxazepin-1-yl)-2,2,2-trifluoroacetamide]
CC(=O)c1ccc2c(c1)N1CCC[C@H](NC(=O)C(F)(F)F)[C@H]1c1ccccc1O2 (relative stereo) [Example 62, trans-N-(7-Acetyl-2,3,4,14b-tetrahydro-1H-dibenzo[b,f]pyrido[1,2-d][1,4]oxazepin-1-yl)-2,2,2-trifluoroacetamide]
O=C(N[C@H]1CCCN2c3cc(Cl)ccc3Oc3ccccc3[C@H]12)C(F)F [Example 13]
COc1cccc2c1N1CCC[C@H](NC(=O)C(F)(F)F)[C@H]1c1ccccc1O2 (relative stereo) [Example 55, trans-N-(2,3,4,14b-Tetrahydro-6-methoxy-1H-dibenzo[b,f]pyrido[1,2-d][1,4]oxazepin-1-yl)-2,2,2-trifluoroacetamide]
O=C(N[C@H]1CCCN2c3cc(Cl)ccc3Oc3c(F)cccc3[C@H]12)C(F)(F)F (relative stereo) [Example 72, trans-N-(7-Chloro-11-fluoro-2,3,4,14b-tetrahydro-1H-dibenzo[b,f]pyrido[1,2-d][1,4]oxazepin-1-yl)-2,2,2-trifluoroacetamide]
O=C(N[C@H]1CCCN2c3cc(Cl)ccc3Nc3ccccc3[C@H]12)C(F)(F)F (relative stereo) [Example 78, trans-N-(7-chloro-1,2,3,4,10,14b-hexahydrodibenzo[b,f]pyrido[1,2-d][1,4]diazepin-1-yl)-2,2,2-trifluoroacetamide]

EC50, < 10 nM:
N#Cc1cccc2c1N1CCC[C@H](NC(=O)C(F)(F)F)[C@H]1c1ccccc1O2 (relative stereo) [Example 53, trans-2,3,4,14b-Tetrahydro-1-[(trifluoroacetyl)amino]-1H-dibenzo[b,f]pyrido[1,2-d][1,4]oxazepine-6-carbonitrile]
FC(F)(F)C(=S)N[C@H]1CCCN2c3ccccc3Oc3ccccc3[C@H]12 (relative stereo) [Example 25]
N#Cc1cc(F)cc2c1N1CCC[C@H](NC(=O)C(F)(F)F)[C@H]1c1ccccc1O2 (relative stereo) [Example 58, trans-8-Fluoro-2,3,4,14b-tetrahydro-1-[(trifluoroacetyl)amino]-1H-dibenzo[b,f]pyrido-[1,2-d][1,4]oxazepine-6-carbonitrile]
FC(F)(F)C(=S)N[C@H]1CCCN2c3c(ccc(Cl)c3Cl)Oc3ccccc3[C@H]12 (relative stereo) [Example 26]
Cc1cc(F)cc2c1N1CCC[C@H](NC(=O)C(F)(F)F)[C@H]1c1ccccc1O2 (relative stereo) [Example 60, trans-2,2,2-Trifluoro-N-(8-fluoro-2,3,4,14b-tetrahydro-6-methyl-1H-dibenzo[b,f]pyrido-[1,2-d][1,4]oxazepin-1-yl)acetamide]
N#Cc1ccc2c(c1)N1CCC[C@H](NC(=O)C(F)(F)F)[C@H]1c1ccccc1O2 (relative stereo) [Example 63, trans-2,3,4,14b-Tetrahydro-1-[(trifluoroacetyl)amino]-1H-dibenzo[b,f]pyrido[1,2-d][1,4]oxazepine-7-carbonitrile]
O=C(N[C@H]1CCCN2c3c(Br)cccc3Oc3ccccc3[C@H]12)C(F)(F)F (relative stereo) [Example 51, trans-N-(6-Bromo-2,3,4,14b-tetrahydro-1H-dibenzo[b,f]pyrido[1,2-d][1,4]oxazepin-1-yl)-2,2,2-trifluoroacetamide]
CC(=O)c1cccc2c1N1CCC[C@H](NC(=O)C(F)(F)F)[C@H]1c1ccccc1O2 (relative stereo) [Example 52, trans-N-(6-Acetyl-2,3,4,14b-tetrahydro-1H-dibenzo[b,f]pyrido[1,2-d][1,4]oxazepin-1-yl)-2,2,2-trifluoroacetamide]
O=C(N[C@H]1CCCN2c3c(ccc(Cl)c3Cl)Oc3cc(Br)ccc3[C@H]12)C(F)(F)F (relative stereo) [Example 71, trans-N-(12-Bromo-6,7-dichloro-2,3,4,14b-tetrahydro-1H-dibenzo[b,f]pyrido[1,2-d][1,4]oxazepin-1-yl)-2,2,2-trifluoroacetamide]
CC(=O)c1cc(F)cc2c1N1CCC[C@H](NC(=O)C(F)(F)F)[C@H]1c1ccccc1O2 (relative stereo) [Example 57, trans-N-(6-Acetyl-8-fluoro-2,3,4,14b-tetrahydro-1H-dibenzo[b,f]pyrido[1,2-d][1,4]oxazepin-1-yl)-2,2,2-trifluoroacetamide]
O=C(N[C@H]1CCCN2c3cc(Br)ccc3Oc3ccccc3[C@H]12)C(F)(F)F (relative stereo) [Example 61, trans-N-(7-Bromo-2,3,4,14b-tetrahydro-1H-dibenzo[b,f]pyrido[1,2-d][1,4]oxazepin-1-yl)-2,2,2-trifluoroacetamide]
O=C(N[C@H]1CCCN2c3cc(Cl)ccc3Oc3cccc(F)c3[C@H]12)C(F)(F)F (relative stereo) [Example 73, trans-N-(7-Chloro-14-fluoro-2,3,4,14b-tetrahydro-1H-dibenzo[b,f]pyrido[1,2-d][1,4]oxazepin-1-yl)-2,2,2-trifluoroacetamide]
